Source: patent US11254944B2, “Agrobacterium derived cell penetrating peptides as nanocarriers” (priority 2017, dated 2022)
Where a SMILES comes first, the peptide text is derived from it. The star is where a group is joined. FITC = O=C1OC2(c3ccc(O)cc3Oc3cc(O)ccc32)c2ccc(NC(=S)*)cc21

Key:
[1] = test system: mesophyll protoplasts of T. aestivum; assay: Cellular uptake of FITC-Vir in mesophyll protoplasts (confocal microscopy, fluorimetry); assay type: cell-based; conditions: for CPP activity compared with the parent peptide: 15 μM
Method: FIG. 2: illustrates the cellular internalization of FITC-Vir in mesophyll protoplasts of T. aestivum (A) Confocal microscopic images of cellular uptake (a) untreated (No peptide) (b) Vir (15 μM) (c) Tat (5 μM) (d) M-Tat (5 μM) (e) Dextran Sulphate (5 μM). (B) Quantitative estimation of uptake in protoplasts as assessed by fluorimetry.
In the said embodiment, a process for identification of optimum concentration and mechanism of cellular uptake of Vir of the peptide nano-carrier in the mesophyll protoplasts of T. aestivum is described below and illustrated in FIG. 2 by employing several endocytic inhibitors such as sodium azide, nocodazole, cytochalasin-D cytochalasin D, and chlorpromazine for blocking different energy-dependent pathways.
It is observed that with increasing concentration, the number of cells internalizing the peptide also increases proportionally.
(§1) FIG. 2 illustrates that in case of protoplasts, the uptake of Vir is affected in the presence of either endocytic inhibitors.
The viability of the protoplasts is affected at higher concentrations of the peptide, as a drop of 20-30% at 15 μM and 60-70% at 30 μM in the percentage of viable cells is observed with respect to untreated cells (viability 90%).

HeLa cells [2] = assay: Cellular uptake of FITC-Vir in HeLa cells (confocal microscopy, flow cytometry); assay type: cell-based
Method: FIG. 4: illustrates the cellular translocation of FITC-Vir in HeLa cells (A) confocal microscopy (a) Untreated (b) Vir (15 μM) (c) Tat (5 μM) (d) M-Tat (5 μM) (e) Dextran Sulphate (5 μM). (B) Quantitative estimation of uptake in HeLa cells as assessed by flow cytometry.
as §1
In one such embodiment, a method of targeting and delivering macromolecules to HeLa cells, as representative of mammalian system, using the peptide nanocarrier includes incubating the HeLa cells with the agrobacterium derived cell penetrating peptide nanocarrier Vir.
(§2) In the said embodiment, a process for identification of optimum concentration of the nano-carrier Vir in the HeLa cells is substantially the same as identification of optimum concentration of the nano-carrier Vir in the mesophyll protoplasts of T. aestivum as discussed above and is illustrated in FIG. 4. It is observed that the internalization in HeLa cells starts from 5 μM but a distinct nuclear localization is observed from 15 μM onwards as shown in FIG. 4. As observed with protoplasts, the peptide uptake in HeLa cells also increases with increasing concentration of peptide with 60-70% cells showing uptake at 15 μM and more than 90% cells showing uptake at 30 μM. However, unlike protoplasts, the viability of HeLa cells is not compromised greatly as 94% cells remained viable at 15 μM and 84% cells at 30 μM.

root tips and leaf bases = assay: Reporter protein (β-glucuronidase) delivery by Vir in root tips and leaf bases; assay type: cell-based, T. aestivum; conditions: β-glucuronidase 1 μg, Vir 15 μM
Description: (§3) FIG. 6: illustrates an analysis of cargo delivery ability of Vir peptide in plant and mammalian systems. Macromolecule delivery by Vir in (A) Protoplast of wheat (B) leaf bases (C) root tips with (a) no peptide (b) GUS buffer only (c) β-glucuronidase only (d) Vir only (e) Vir-β-galactosidase; (D) HeLa cells with (a) non peptide (b) X-gal staining solution only (c) β-galactosidase only (d) Vir only (e) Vir-β-galactosidase.
(§4) In one embodiment, the ability of the peptide nanocarrier to deliver macromolecular cargoes in cells is evaluated by using β-glucuronidase enzyme as the reporter protein whereas β-galactosidase is employed for delivery in mammalian cells. The reporter proteins are non-covalently complexed with peptide nanocarrier, SEQ ID NO: 3 with the sequence KRPRRKRARGNRR at room temperature for 1 hr. The reporter proteins are used at a concentration of 1 μg while the peptide nanocarrier is used at the optimized concentration that is, 15 μM for complex formation. The peptide-protein complexes thus formed, were incubated with mammalian cells, plant protoplasts and tissues (root tips and leaf bases) further for 1 hour at 18-37 deg C. and room temperature, at pH range from 5.5 to 7.5 respectively. The enzyme delivery by peptide nanocarrier is examined by staining the cells with respective staining solutions. […]

[3] = Viability of HeLa cells after peptide incubation; assay type: cell-based; conditions: human, read-out: cells remained viable
Method: as §2

[4] = test system: root tips and leaf bases of T. aestivum; assay: Translocation of Vir in meristematic tissues (root tips, leaf bases); assay type: cell-based; conditions: 5-40 μM
Method: FIG. 3: illustrates the translocation of Vir in various tissues of T. aestivum (A) leaf bases (B) root tips. Different panels represent (a) Untreated (b) Dextran sulphate (5 μM) (c) M-Tat (5 μM) (d) Tat (5 μM) (e) Vir: 5 μM (f) 10 μM (g) 15 μM (h) 20 μM (i) 30 μM (j) 40 μM.
In another embodiment, a method of targeting and delivering macromolecules to a meristematic tissue that is, root tips and leaf bases, of T. aestivum(wheat plant) using the agrobacterium derived cell penetrating peptide nanocarrier Vir includes incubating the meristematic tissues that is, root tips and leaf bases, of T. aestivum with the peptide nanocarrier.
In the said embodiment, a process for identification of optimum concentration of the peptide nanocarrier in the meristematic tissues of T. aestivum is substantially the same as identification of optimum concentration of the nano-carrier Vir in the mesophyll protoplasts of T. aestivum as discussed above and is illustrated in FIG. 3.

Protoplast of wheat = assay: Reporter protein (β-glucuronidase) delivery by Vir in wheat protoplasts; assay type: cell-based, T. aestivum; conditions: β-glucuronidase 1 μg, Vir 15 μM
Description: as §3, §4

HeLa cells [5] = assay: Reporter protein (β-galactosidase) delivery by Vir in HeLa cells; assay type: cell-based; conditions: β-galactosidase 1 μg, Vir 15 μM
Description: as §3, §4

| Compound | CPP activity compared with the parent peptide [1] | CPP activity compared with the parent peptide (HeLa cells [2]; 15 μM) | delivery efficiency (root tips and leaf bases; leaf bases) [%] | delivery efficiency (root tips and leaf bases; root tips) [%] | viability at 15 µM ([3]; 15 μM) [%] | viability at 30 µM ([3]; 30 μM) [%] | uptake in the tissues [4] | cells show uptake [1] | concentration from which prominent nuclear localization is observed [1] [µM] | number of cells exhibiting cellular uptake ([1]; distinct nuclear localization) | uptake in the presence of endocytic inhibitors ([1]; sodium azide, nocodazole, cytochalasin D, chlorpromazine) | concentration from which distinct nuclear localization is observed (HeLa cells [2]) [µM] | concentration from which internalization starts (HeLa cells [2]) [µM] | cells showing uptake (HeLa cells [2]; 15 μM) | cells showing uptake (HeLa cells [2]; 30 μM) | cellular uptake reduced (HeLa cells [2]; at 4° C.) [%] | cellular uptake reduced (HeLa cells [2]; in presence of chlorpromazine) [%] | cellular uptake in presence of other inhibitors (HeLa cells [2]; other endocytic inhibitors) | delivery efficiency (Protoplast of wheat) [%] | efficiency of β-galactosidase delivery (HeLa cells [5]) |
| --- | --- | --- | --- | --- | --- | --- | --- | --- | --- | --- | --- | --- | --- | --- | --- | --- | --- | --- | --- | --- |
| KAPARKRARGNRR [M-Vir1, mutated VirD2 peptide, mutation in KRPR to KAPA] | increased | increased |  |  |  |  |  |  |  |  |  |  |  |  |  |  |  |  |  |  |
| KRPRRKAAAGNRR [M-Vir2, mutated VirD2 peptide, mutation in RKRAR to RKAAA] | remains similar to the parent peptide | remains similar to the parent peptide |  |  |  |  |  |  |  |  |  |  |  |  |  |  |  |  |  |  |
| C[C@H](NC(=O)[C@H](CCCNC(=N)N)NC(=O)[C@H](CCCCN)NC(=O)[C@H](CCCNC(=N)N)NC(=O)[C@H](CCCNC(=N)N)NC(=O)[C@@H]1CCCN1C(=O)[C@H](CCCNC(=N)N)NC(=O)[C@H](CCCCN)NC(=S)Nc1ccc2c(c1)C(=O)OC21c2ccc(O)cc2Oc2cc(O)ccc21)C(=O)N[C@@H](CCCNC(=N)N)C(=O)NCC(=O)N[C@@H](CC(N)=O)C(=O)N[C@@H](CCCNC(=N)N)C(=O)N[C@@H](CCCNC(=N)N)C(=O)O [Vir, KRPRRKRARGNRR] ({FITC}-KRPRRKRARGNRR-OH; N-terminus and C-terminus assumed) |  |  | 90 | 90 | 94 | 84 | increases with increasing concentration of the peptide | 10-15% | ≥ 15 | 50-60% | affected | ≥ 15 | ≥ 5 | 60-70% | more than 90% | 20 | 20 | remained unaffected | 50 | more than 90% |
